System: participants with SSc-RP
Experiment: SHAQ - Visual Analog Scale - Breathing Problems
Type: in vivo, human
Design: Visual Analog Scale-Breathing Problems, In Clinic Visit (Day 12), Mean / Visual Analog Scale-Breathing Problems, In Clinic Visit (Day 12), Median / SHAQ Visual Analogue Scale - Breathing Problems, In-Clinic Visit (Day 12), Mean / SHAQ Visual Analogue Scale - Breathing Problems, In-Clinic Visit (Day 12), Median / SHAQ Visual Analogue Scale - Breathing Problems, Change from Baseline, Median: scale not given here
Settings: for % improvement in Breathing: median, SHAQ, mITT Part A
Excerpt: The standard, validated, patient reported outcome measures tool for SSc patients, the Scleroderma Health Assessment Questionnaire (SHAQ), will be used to assess the participant qualify of life. Details are attached in the Appendix. The participant quality of life will be scored, and a disability index calculated for each questionnaire completed by the patient at Screening and each in-clinic visit. The absolute change in participant quality of life from baseline to the end of each dosing period will be calculated similar to frequency data as before.
The standard, validated, patient reported outcome measures tool for SSc patients, the SHAQ, was collected at the time points specified in the study schedules (FIG. 2 and FIGS. 4A and 4B) to assess the participant's quality of life. The SHAQ included a Raynaud's VAS that will also be reported separately.

[1] = Any Cilnidipine (N = 17), Day 12, PP Population, Part A, Subject 01-110 excluded
[2] = Cilnidipine 10 mg, SSc patients, PP, Part A
[3] = Cilnidipine 20 mg, SSc patients, PP, Part A
[4] = Modified ITT Population-Part A, Day 12, dose cilnidipine 10 mg, tadalafil 5 mg, alone or combined as labelled
[5] = Modified ITT Population-Part A, dose cilnidipine 20 mg, tadalafil 5 mg, alone or combined as labelled
[6] = Pooled Cilnidipine (N = 8), Day 12, PP Population, Part A
[7] = pooled Cilnidipine 10 mg and Cilnidipine 10 mg + Tadalafil 5 mg

How did the “SHAQ Visual Analogue Scale - Breathing Problems, Change from Baseline, Mean (SD)” value [1] turn out when `COCCOC(=O)C1=C(C)NC(C)=C(C(=O)OC/C=C/c2ccccc2)C1c1cccc([N+](=O)[O-])c1` (stereo not drawn) [Cilnidipine] was run?
The value was 0.025 (1.2310).

What about the “SHAQ Visual Analogue Scale - Breathing Problems, Change from Baseline, Median” value [1] of the same compound?
Its value is 0.000.

And the “SHAQ Visual Analogue Scale - Breathing Problems, In-Clinic Visit (Day 12), Mean (SD)” value [1]?
The value was 1.388 (2.2783).

What about the “SHAQ Visual Analogue Scale - Breathing Problems, In-Clinic Visit (Day 12), Median” value [1] of the same compound?
The value was 0.300.

And the “SHAQ Visual Analogue Scale - Breathing Problems, Percent Change from Baseline, Mean (SD)” value [1]?
Its value is 50.12 (200.437) %.

And the “SHAQ Visual Analogue Scale - Breathing Problems, Percent Change from Baseline, Median” value [1]?
Its value is −16.00%.

What about the “SHAQ VAS Breathing Problems, Change from Baseline, Max” value [2] of the same compound?
The value was 0.00.

What about the “SHAQ VAS Breathing Problems, Change from Baseline, Mean” value [2] of the same compound?
Its value is −0.300.

And the “SHAQ VAS Breathing Problems, Change from Baseline, Min” value [2]?
The value was −1.20,.

And the “SHAQ VAS Breathing Problems, Change from Baseline, Q1” value [2]?
Its value is −0.600,.

What about the “SHAQ VAS Breathing Problems, Change from Baseline, Q3” value [2] of the same compound?
Its value is 0.000.

And the “SHAQ VAS Breathing Problems, Day 12, Max” value [2]?
The value was 6.30.

What about the “SHAQ VAS Breathing Problems, Day 12, Mean” value [2] of the same compound?
Its value is 1.575.

What about the “SHAQ VAS Breathing Problems, Day 12, Min” value [2] of the same compound?
Its value is 0.00,.

What about the “SHAQ VAS Breathing Problems, Day 12, Q1” value [2] of the same compound?
The value was 0.000,.

What about the “SHAQ VAS Breathing Problems, Percent Change from Baseline, Max” value [2] of the same compound?
Its value is −16.0.

What about the “SHAQ VAS Breathing Problems, Percent Change from Baseline, Mean” value [2] of the same compound?
The value was −16.00.

And the “SHAQ VAS Breathing Problems, Percent Change from Baseline, Median” value [2]?
Its value is −16.00.

And the “SHAQ VAS Breathing Problems, Percent Change from Baseline, Min” value [2]?
The value was −16.0,.

And the “SHAQ VAS Breathing Problems, Percent Change from Baseline, Q1” value [2]?
The value was −16.00,.

What about the “SHAQ VAS Breathing Problems, Percent Change from Baseline, Q3” value [2] of the same compound?
Its value is −16.00.

What about the “% improvement in Breathing” value (Cilnidipine 20 mg (n = 3)) of the same compound?
Its value is 67% (median).

And the “SHAQ VAS Breathing Problems, Change from Baseline, Max” value [3]?
Its value is 0.60.

And the “SHAQ VAS Breathing Problems, Change from Baseline, Median” value [3]?
Its value is −0.250.

What about the “SHAQ VAS Breathing Problems, Change from Baseline, Min” value [3] of the same compound?
The value was −2.00,.

And the “SHAQ VAS Breathing Problems, Change from Baseline, Q1” value [3]?
Its value is −1.400,.

And the “SHAQ VAS Breathing Problems, Change from Baseline, Q3” value [3]?
Its value is 0.450.

What about the “SHAQ VAS Breathing Problems, Day 12, Max” value [3] of the same compound?
Its value is 2.50.

And the “SHAQ VAS Breathing Problems, Day 12, Mean” value [3]?
The value was 0.850.

What about the “SHAQ VAS Breathing Problems, Day 12, Median” value [3] of the same compound?
The value was 0.450.

What about the “SHAQ VAS Breathing Problems, Day 12, Min” value [3] of the same compound?
Its value is 0.00,.

And the “SHAQ VAS Breathing Problems, Day 12, Q1” value [3]?
The value was 0.200,.

And the “SHAQ VAS Breathing Problems, Day 12, Q3” value [3]?
The value was 1.500.

And the “SHAQ VAS Breathing Problems, Percent Change from Baseline, Max” value [3]?
The value was 150.0.

What about the “SHAQ VAS Breathing Problems, Percent Change from Baseline, Min” value [3] of the same compound?
Its value is −100.0,.

What about the “SHAQ VAS Breathing Problems, Percent Change from Baseline, Q1” value [3] of the same compound?
Its value is −83.33,.

And the “SHAQ VAS Breathing Problems, Percent Change from Baseline, Q3” value [3]?
Its value is 90.79.

And the “Visual Analog Scale-Breathing Problems, Change from Baseline, Mean” value [4]?
Its value is −0.300.

And the “Visual Analog Scale-Breathing Problems, Change from Baseline, Median” value [4]?
The value was 0.000.

What about the “Visual Analog Scale-Breathing Problems, Percent Change from Baseline, Mean” value [4] of the same compound?
Its value is −16.00%.

And the “Visual Analog Scale-Breathing Problems, Percent Change from Baseline, Median” value [4]?
Its value is −16.00%.

And the “Visual Analog Scale-Breathing Problems, Change from Baseline, Median” value (Modified ITT Population-Part A, Day 12, dose cilnidipine 20 mg, tadalafil 5 mg, alone or combined as labelled)?
The value was −0.800.

And the “Visual Analog Scale-Breathing Problems, In Clinic Visit (Day 12), Median” value (Modified ITT Population-Part A, dose cilnidipine 10 mg, tadalafil 5 mg, alone or combined as labelled)?
Its value is 0.000.

What about the “Visual Analog Scale-Breathing Problems, In Clinic Visit (Day 12), Mean” value [5] of the same compound?
Its value is 0.300.

And the “Visual Analog Scale-Breathing Problems, In Clinic Visit (Day 12), Median” value [5]?
Its value is 0.400.

What about the “SHAQ Visual Analogue Scale - Breathing Problems, In-Clinic Visit (Day 12), Mean” value (Pooled Cilnidipine 20 mg and Cilnidipine 20 mg + Tadalafil 5 mg (N = 8), Day 12, PP Population, Part A) of the same compound?
The value was 1.400.

What about the “SHAQ Visual Analogue Scale - Breathing Problems, Change from Baseline, Mean (SD)” value [6] of the same compound?
The value was −0.388 (0.8725).

What about the “SHAQ Visual Analogue Scale - Breathing Problems, In-Clinic Visit (Day 12), Mean (SD)” value [6] of the same compound?
The value was 1.213 (2.2229).

And the “SHAQ Visual Analogue Scale - Breathing Problems, In-Clinic Visit (Day 12), Median” value [6]?
The value was 0.200.

What about the “SHAQ Visual Analogue Scale - Breathing Problems, Percent Change from Baseline, Mean (SD)” value [6] of the same compound?
Its value is −0.22 (97.721) %.

What about the “% improvement in Breathing” value (Pooled Cilnidipine (n = 7)) of the same compound?
Its value is 41% (median).

What about the “% Δ from baseline, VAS Breathing mean” value (Pooled cilnidipine (n=4)) of the same compound?
Its value is −8.2%.

And the “VAS Breathing Problems Change from Baseline Max” value [7]?
Its value is 1.00.

What about the “VAS Breathing Problems Change from Baseline Mean” value [7] of the same compound?
Its value is −0.175.

Reference: US20240358692A1, “TREATMENT OF SCLERODERMA” (Aisa Pharma, Inc., priority 2023, published 2024)
